According to PubChem BioAssay (NCI):
Several values for one entry are separate records, joined by “and”; a condition that tells them apart may be missing. Identical values can stand only once.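 1) Cells in 96-well plates. 2) Compound, 48 h, 5 concentrations. 3) Linear interpolation between surrounding doses. 4) Unreached endpoint = highest concentration. The concentration for 50% growth inhibition is given as GI50. TGI is the concentration that stops growth completely.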

Tests used:
Assay in all cases: NCI anticancer screen, dose series, 48 h
[1] = tested on: LOX IMVI melanoma
[2] = tested on: DU-145 prostate
[3] = tested on: OVCAR-5 ovarian
[4] = tested on: HCT-15 colon
[5] = tested on: NCI/ADR-RES ovarian
[6] = tested on: HCT-116 colon
[7] = tested on: MDA-MB-231 breast
[8] = tested on: A498 renal
[9] = tested on: NCI-H226 lung
[10] = tested on: RPMI-8226 leukemia
[11] = tested on: SK-MEL-5 melanoma
[12] = tested on: NCI-H460 lung
[13] = tested on: SK-MEL-2 melanoma
[14] = tested on: SF-539 CNS
[15] = tested on: SF-295 CNS
[16] = tested on: SK-MEL-28 melanoma
[17] = tested on: UO-31 renal
[18] = tested on: NCI-H23 lung
[19] = tested on: SW-620 colon
[20] = tested on: A549 NSCLC
[21] = tested on: RXF 393 renal
[22] = tested on: IGROV1 ovarian
[23] = tested on: MALME-3M melanoma
[24] = tested on: HT29 colon
[25] = tested on: MDA-MB-435
[26] = tested on: OVCAR-8 ovarian
[27] = tested on: OVCAR-3 ovarian
[28] = tested on: MDA-N
[29] = tested on: M19-MEL melanoma
[30] = tested on: SNB-19 CNS
[31] = tested on: SR leukemia
[32] = tested on: LXFL 529 NSCLC
[33] = tested on: DMS 114 small cell lung
[34] = tested on: 786-0 renal
[35] = tested on: MCF7 breast
[36] = tested on: COLO 205 colon
[37] = tested on: U251 CNS
[38] = tested on: SNB-75 CNS
[39] = tested on: CCRF-CEM leukemia
[40] = tested on: EKVX NSCLC
[41] = tested on: HOP-92 NSCLC
[42] = tested on: HCC-2998 colon
[43] = tested on: SF-268 CNS
[44] = tested on: MOLT-4 leukemia
[45] = tested on: CAKI-1 renal
[46] = tested on: M14 melanoma
[47] = tested on: DMS 273 small cell lung
[48] = tested on: T-47D breast
[49] = tested on: KM12 colon
[50] = tested on: UACC-257 melanoma
[51] = tested on: HOP-62 NSCLC
[52] = tested on: HL-60(TB) leukemia
[53] = tested on: OVCAR-4 ovarian
[54] = tested on: K-562 leukemia
[55] = tested on: NCI-H522 lung

## CC[C@@]1(O)C(=O)OCc2c1cc1n(c2=O)Cc2cc3cc(OC)ccc3nc2-1
[1]
  GI50: 0.0125 µM
  TGI: 0.173 µM and 0.298 µM and 0.105 µM
[2]
  GI50: 0.0219 µM
  TGI: 0.041 µM
[3]
  GI50: 0.643 µM
  TGI: 0.562 µM
[4]
  GI50: 0.223 µM
  TGI: 8.12 µM
[5]
  GI50: 0.0204 µM
  TGI: 0.169 µM
[6]
  GI50: 0.0442 µM
  TGI: 0.573 µM and 0.481 µM
[7]
  GI50: 0.735 µM
[8]
  GI50: 0.0272 µM
  TGI: 1.8 µM and 0.307 µM
[9]
  TGI: 0.063 µM and 0.0968 µM and 0.0206 µM
[10]
  GI50: 0.0411 µM
  TGI: 8.46 µM and 1.23 µM
[11]
  TGI: 0.116 µM and 0.0278 µM
[12]
  GI50: 0.00433 µM
  TGI: 0.152 µM and 0.211 µM and 0.188 µM
[13]
  TGI: 0.529 µM
[14]
  TGI: 0.0361 µM and 0.0962 µM
[15]
  TGI: 0.0933 µM and 0.8 µM
[16]
  GI50: 0.894 µM
[17]
  GI50: 0.249 µM
[18]
  GI50: 0.0273 µM
[19]
  GI50: 0.0391 µM
  TGI: 4.79 µM
[20]
  GI50: 0.0672 µM and 0.0109 µM
  TGI: 2.92 µM
[21]
  GI50: 0.101 µM
  TGI: 0.0828 µM and 0.561 µM
[22]
  TGI: 0.945 µM
[23]
  GI50: 0.0257 µM
  TGI: 0.548 µM
[24]
  GI50: 0.0864 µM
  TGI: 0.238 µM
[25]
  GI50: 0.117 µM
  TGI: 0.247 µM and 0.333 µM
[26]
  GI50: 0.0153 µM and 0.0239 µM
  TGI: 0.297 µM and 0.35 µM
[27]
  GI50: 0.367 µM and 0.747 µM
  TGI: 5.73 µM and 4.54 µM
[28]
  TGI: 1.04 µM
[29]
  TGI: 1.48 µM
[30]
  TGI: 4.19 µM
[31]
  GI50: 0.00461 µM
[32]
  TGI: 2.51 µM
[33]
  TGI: 1.02 µM
[34]
  GI50: 0.0159 µM
[35]
  TGI: 0.196 µM
[36]
  GI50: 0.419 µM and 0.143 µM
[37]
  TGI: 0.0541 µM
[38]
  TGI: 0.0491 µM
[39]
  GI50: 0.00232 µM
[40]
  GI50: 1.1 µM
  TGI: > 100 µM
[41]
  GI50: 0.0251 µM
  TGI: 0.084 µM and 0.41 µM
[42]
  GI50: 0.147 µM and 0.0656 µM
  TGI: 0.29 µM and 1.09 µM and 0.388 µM
[43]
  GI50: 0.017 µM
[44]
  GI50: 0.0038 µM
  TGI: 0.0289 µM
[45]
  TGI: 0.0908 µM
[46]
  GI50: 0.127 µM
[47]
  TGI: 1.58 µM
[48]
  GI50: 0.0185 µM
[49]
  GI50: 0.273 µM
  TGI: 2.58 µM and 1.54 µM
[50]
  GI50: 0.0998 µM and 0.17 µM
  TGI: 1.54 µM
[51]
  TGI: 0.948 µM
[52]
  GI50: 0.00873 µM
  TGI: 0.0172 µM
[53]
  GI50: 0.682 µM
[54]
  GI50: 0.0571 µM and 0.0344 µM
  TGI: > 100 µM
[55]
  TGI: 0.437 µM and 1.99 µM
